Measurements from patent US9113629B2, “4-amino-6-(4-substituted-phenyl)-picolinates and 6-amino-2-(4-substituted-phenyl)-pyrimidine-4-carboxylates and their use as herbicides” (DOW AGROSCIENCES LLC, priority 2013, dated 2015).
Where two headings read alike, the source gives them in different places.

How the values were obtained:
[1] = test system: Key Broadleaf Weed and Crop Species; assay: Post-emergent Test II herbicidal activity (Table 5); type: in vivo; details: post-emergence, 336 h, 14 days after application; for pest or weed control at 70 g/ha: application rate 70 g ai/ha; for pest or weed control at 140 g/ha: application rate 140 g ai/ha
How it was run: (§1)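 Greenhouse post-emergent assay: seedlings (first/second true leaf) in Metro-Mix 360 were sprayed at 187 L/ha at a top rate plus twofold dilutions down to 1/16×; solvent-blank controls were included. Percent visual injury was read at 14 d.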

[2] = test system: Key Grass and Sedge Weeds as well as Grass Crops; assay: Post-emergent Test II herbicidal activity (Table 6); type: in vivo; details: post-emergence, 336 h; for pest or weed control at 70 g/ha: 70 g ai/ha; for pest or weed control at 140 g/ha: 140 g ai/ha
How it was run: as §1

[3] = ABUTH: velvetleaf (Abutilon theophrasti), read-out: Visual Growth Reduction (%) 14 Days After Application, ABUTH
[4] = AMARE: redroot pigweed (Amaranthus retroflexus), read-out: Visual Growth Reduction (%) 14 Days After Application, AMARE
[5] = BRSNN: oilseed-rape, canola (Brassica napus), read-out: Visual Growth Reduction (%) 14 Days After Application, BRSNN
[6] = CHEAL: lambsquarters (Chenopodium album), read-out: Visual Growth Reduction (%) 14 Days After Application, CHEAL
[7] = EPHHL: wild poinsettia (Euphorbia heterophylla), read-out: Visual Growth Reduction (%) 14 Days After Application, EPHHL
[8] = HELAN: sunflower (Helianthus annuus), read-out: Visual Growth Reduction (%) 14 Days After Application, HELAN
[9] = VIOTR: wild pansy (Viola tricolor), read-out: Visual Growth Reduction (%) 14 Days After Application, VIOTR
[10] = CYPES: yellow nutsedge (Cyperus esculentus), read-out: Visual Growth Reduction (%) 14 Days After Application, CYPES
[11] = DIGSA: crabgrass (Digitaria sanguinalis), read-out: Visual Growth Reduction (%) 14 Days After Application, DIGSA
[12] = ECHCG: barnyardgrass (Echinochloa crus-galli), read-out: Visual Growth Reduction (%) 14 Days After Application, ECHCG
[13] = ORYSA: rice (Oryza sativa), crop, read-out: Visual Growth Reduction (%) 14 Days After Application, ORYSA
[14] = SETFA: giant foxtail (Setaria faberi), read-out: Visual Growth Reduction (%) 14 Days After Application, SETFA
[15] = SORVU: grain sorghum (Sorghum vulgare), read-out: Visual Growth Reduction (%) 14 Days After Application, SORVU
[16] = TRZSS (wheat, Triticum aestivum), crop, read-out: Visual Growth Reduction (%) 14 Days After Application, TRZSS
[17] = ZEAMX: maize, corn (Zea mays), crop, read-out: Visual Growth Reduction (%) 14 Days After Application, ZEAMX

Row | SMILES | pest or weed control at 70 g/ha [1, 3] [%] | pest or weed control at 140 g/ha [1, 3] [%] | pest or weed control at 70 g/ha [1, 4] [%] | pest or weed control at 140 g/ha [1, 4] [%] | pest or weed control at 70 g/ha [1, 5] [%] | pest or weed control at 140 g/ha [1, 5] [%] | pest or weed control at 70 g/ha [1, 6] [%] | pest or weed control at 140 g/ha [1, 6] [%] | pest or weed control at 70 g/ha [1, 7] [%] | pest or weed control at 140 g/ha [1, 7] [%] | pest or weed control at 70 g/ha [1, 8] [%] | pest or weed control at 140 g/ha [1, 8] [%] | pest or weed control at 70 g/ha [1, 9] [%] | pest or weed control at 70 g/ha [2, 10] [%] | pest or weed control at 140 g/ha [2, 10] [%] | pest or weed control at 70 g/ha [2, 11] [%] | pest or weed control at 140 g/ha [2, 11] [%] | pest or weed control at 70 g/ha [2, 12] [%] | pest or weed control at 140 g/ha [2, 12] [%] | pest or weed control at 70 g/ha [2, 13] [%] | also measured
1 | COC(=O)c1nc(-c2ccccc2F)c(F)c(N)c1Cl [Compound 206] | 95 to 100 | 95 to 100 | 95 to 100 | 95 to 100 | 75 to 84 | 85 to 94 | 85 to 94 | 85 to 94 | 95 to 100 | 95 to 100 | 60 to 74 | 85 to 94 | 45 to 59 | 0 to 29 | 0 to 29 | 0 to 29 | 0 to 29 | 0 to 29 | 0 to 29 | 0 to 29 | pest or weed control at 140 g/ha [1, 9]: 60 to 74%; pest or weed control at 140 g/ha [2, 13]: 0 to 29%; pest or weed control at 70 g/ha [2, 14]: 0 to 29%; pest or weed control at 140 g/ha [2, 14]: 0 to 29%; pest or weed control at 70 g/ha [2, 15]: 0 to 29%; pest or weed control at 140 g/ha [2, 15]: 0 to 29%; pest or weed control at 70 g/ha [2, 16]: 0 to 29%; pest or weed control at 140 g/ha [2, 16]: 0 to 29%; pest or weed control at 70 g/ha [2, 17]: 0 to 29%; pest or weed control at 140 g/ha [2, 17]: 0 to 29%
2 | COC(=O)c1nc(-c2ccc(C(F)F)cc2)c(F)c(N)c1Cl [Compound 209] | 95 to 100 | 95 to 100 | 95 to 100 | 95 to 100 | 85 to 94 | 85 to 94 | 95 to 100 | 95 to 100 | 95 to 100 | 95 to 100 | 95 to 100 | 95 to 100 | 0 to 29 | 85 to 94 | 85 to 94 | 45 to 59 | 60 to 74 | 95 to 100 | 95 to 100 | 0 to 29 | pest or weed control at 140 g/ha [1, 9]: 0 to 29%; pest or weed control at 140 g/ha [2, 13]: 0 to 29%; pest or weed control at 70 g/ha [2, 14]: 45 to 59%; pest or weed control at 140 g/ha [2, 14]: 75 to 84%; pest or weed control at 70 g/ha [2, 15]: 95 to 100%; pest or weed control at 140 g/ha [2, 15]: 95 to 100%; pest or weed control at 70 g/ha [2, 16]: 0 to 29%; pest or weed control at 140 g/ha [2, 16]: 0 to 29%; pest or weed control at 70 g/ha [2, 17]: 75 to 84%; pest or weed control at 140 g/ha [2, 17]: 85 to 94%
3 | C=Cc1c(C(=O)O)nc(-c2ccc(Cl)c(F)c2)c(F)c1N [Compound 214] | 95 to 100 | 95 to 100 | 95 to 100 | 95 to 100 | 95 to 100 | 95 to 100 | 95 to 100 | 95 to 100 | 95 to 100 | 95 to 100 | 95 to 100 | 95 to 100 | 75 to 84 | 95 to 100 | 95 to 100 | 0 to 29 | 0 to 29 | 95 to 100 | 95 to 100 | 0 to 29 | pest or weed control at 140 g/ha [1, 9]: 75 to 84%; pest or weed control at 140 g/ha [2, 13]: 45 to 59%; pest or weed control at 70 g/ha [2, 14]: 0 to 29%; pest or weed control at 140 g/ha [2, 14]: 30 to 44%; pest or weed control at 70 g/ha [2, 15]: 75 to 84%; pest or weed control at 140 g/ha [2, 15]: 85 to 94%; pest or weed control at 70 g/ha [2, 16]: 0 to 29%; pest or weed control at 140 g/ha [2, 16]: 0 to 29%; pest or weed control at 70 g/ha [2, 17]: 85 to 94%; pest or weed control at 140 g/ha [2, 17]: 85 to 94%
4 | C=Cc1c(C(=O)OC)nc(-c2ccc(Cl)c(F)c2)c(F)c1N [Compound 215, methyl 4-amino-6-(4-chloro-3-fluorophenyl)-5-fluoro-3-vinylpicolinate] | 95 to 100 | 95 to 100 | 95 to 100 | 95 to 100 | 95 to 100 | 95 to 100 | 95 to 100 | 95 to 100 | 95 to 100 | 95 to 100 | 95 to 100 | 95 to 100 | 0 to 29 | 95 to 100 | 95 to 100 | 0 to 29 | 0 to 29 | 0 to 29 | 95 to 100 | 0 to 29 | pest or weed control at 140 g/ha [2, 13]: 0 to 29%; pest or weed control at 70 g/ha [2, 14]: 0 to 29%; pest or weed control at 140 g/ha [2, 14]: 0 to 29%; pest or weed control at 70 g/ha [2, 15]: 45 to 59%; pest or weed control at 140 g/ha [2, 15]: 60 to 74%; pest or weed control at 70 g/ha [2, 16]: 0 to 29%; pest or weed control at 140 g/ha [2, 16]: 0 to 29%; pest or weed control at 70 g/ha [2, 17]: 30 to 44%; pest or weed control at 140 g/ha [2, 17]: 45 to 59%
